The text below walks through data of US11268958B2, “Bacteria-specific labeled substrtates as imaging biomarkers to diagnose, locate, and monitor infections” (THE JOHNS HOPKINS UNIVERSITY, priority 2012, dated 2022).

Where two headings read alike, the source gives them in different places.

Data set [1] has as its system Mycobacterium tuberculosis.
Method: (§3) In vitro uptake assays: Freeze dried reference strains of various bacterial species were purchased from American Type Culture Collection (Manassas, Va.) and grown to mid-log phase (OD600 1.0) in Lysogeny Broth (LB) or Middlebrook 7H9 broth supplemented with 10% oleic acid-albumin-dextrose-catalase (Difco, Detroit, Mich.) and 0.05% Tween 80 (Sigma). The number of colony forming units (CFUs) were enumerated by dilution and plating onto solidified media. Tracer uptake assays were performed by incubating bacterial cultures with 7.4 kBq per ml culture of tracer at 37° C. with rapid agitation for 4 hours, with sampling at 0, 30, 120, and 240 minutes. As a control, heat killed (90° C. for 20 minutes) bacteria were similarly incubated with each tracer. Bacteria were pelleted by centrifugation and washed three times with PBS. The activity for each pellet was measured using an automated gamma counter (1282 Compugamma CS Universal gamma counter, LKB Wallac). Background counts were subtracted from sample counts. Six independent replicates were used for each tracer, and for each bacterial strain. Uptake was expressed as the percentage of total tracer added to the culture that resided within the cell pellet.
The next data set relates to S. aureus. Nature of the data set: Scintillation counting of resected tissues in S. aureus thigh infection vs LPS. Format: in vivo, CBA/J mice. Conditions: live S. aureus right thigh, 50 μg LPS left thigh, IV. As to the method: We next investigated whether [^3H]-2-F-PABA was capable of detecting infection with S. aureus in vivo. […] [^3H]-2-F-PABA was injected IV using a tail vein catheter. Mice were sacrificed following injection, tissues were then resected and radiotracer uptake measured by scintillation counting.

Data set [2] deals with Staphylococcus aureus, Escherichia coli, Mycobacterium smegmatis. Nature of the data set: Differential intracellular accumulation in three model bacteria. Conditions: S. aureus, E. coli, M. smegmatis.
Method: as §3
The next data set concerns J774 macrophages. Nature of the data set: Tracer uptake in host cells (J774 macrophages). Format: cell-based. Conditions: for accumulation in eukaryotic cell line: J774 macrophage (data not shown).
The test system of another data set is Staphylococcus aureus. The experiment in a line: Intracellular tracer uptake assay in S. aureus cultures. Format: cell-based. Conditions: for intracellular uptake / probe incorporated by bacteria (percent of total radioactivity): S. aureus; for probe incorporated by bacteria (percent of total radioactivity): gram positive control, 120 minutes.
The test system of another data set is Escherichia coli. Nature of the data set: Intracellular tracer uptake assay in E. coli cultures. Format: cell-based.
A further data set concerns heat killed bacteria. Nature of the data set: Tracer uptake in heat killed bacteria (negative control). Format: cell-based. The text has this:
Background counts were subtracted from sample counts.
(§1) [^18F]FDS uptake and imaging. […] Tissues were collected for direct gamma counting.

Data set [3] relates to Human Brain Microvascular Endothelial Cells (HBMEC). The conditions noted are these: 2 h.
The subject of another data set is Mycobacterium smegmatis. The experiment in a line: Intracellular tracer uptake assay in M. smegmatis cultures. Conditions: 2 hours of incubation.
A further data set has as its system E. coli. Conditions: for right thigh vs. left thigh uptake ratio (gamma counts of resected tissues) / PET signal intensity, infected right thigh versus control left thigh (ROIs): live E. coli right thigh, heat killed E. coli left thigh; for PET signal intensity, infected right thigh versus control left thigh (ROIs): 8 hours incubation.
For the next data set, the system named is WEHI 164 fibroblasts. The experiment in a line: Tracer uptake in WEHI 164 fibroblasts. Conditions: WEHI 164 fibroblast (data not shown). Format: cell-based.
For data set [4], the system named is Enterococcus, Staphylococcus and Streptococcus species. The experiment in a line: [18F]FDS uptake in representative organisms: gram positive organisms. Format: cell-based. The protocol: as §1
(§2) To further assess the specificity of uptake, E. coli cultures were co-incubated with [^18F]FDS and increasing concentrations of unlabeled sorbitol (FIG. 6B). […] The presence of a srl gene cassette responsible for sorbitol transport, phosphorylation, and oxidation was noted within the annotated genome of E. coli. To predict the range of organisms capable of [^18F]FDS uptake, and therefore detection by PET, the srlD, the gene encoding E. coli sorbitol-6-phosphate dehydrogenase was used to query the UniProtKB database of genome sequenced bacterial species. Alignment and percentage identity was calculated using ClustalOmega. We then selected representative organisms from this panel to test for [^18F]FDS uptake (FIG. 6C).

Another data set has as its system E. coli vs S. aureus. Nature of the data set: PET imaging and gamma counting in mixed infection model (E. coli right thigh, S. aureus left thigh). Conditions: 6 hours incubation, imaging.
In another data set the test system is Pseudomonas aeruginosa. Nature of the data set: [18F]FDS uptake in representative organisms: Pseudomonas aeruginosa. Format: cell-based. The conditions noted are these: aerobic gram-negative rod Pseudomonas aeruginosa. As to the method:
as §1, §2

In data set [5] the test system is K. pneumoniae. The experiment in a line: PET imaging and gamma counting in K. pneumoniae pulmonary infection model. Format: in vivo, CBA/J mice.
The test system of data set [6] is K. pneumoniae. The experiment in a line: Intracellular tracer uptake assay in K. pneumoniae cultures. The conditions noted are these: after 120 minutes.
Method: as §3
Data set [7] has as its system Enterobacteriaceae family. Nature of the data set: [18F]FDS uptake in representative organisms: Enterobacteriaceae. Format: cell-based. The conditions noted are these: members of the Enterobacteriaceae family. As to the method: as §1, §2
Where [8] appears, read: M. tb, ^3H labeled tracers, 18 hours of incubation.

For the molecule `Nc1ccc(C(=O)O)c(F)c1` [2-F-PABA, 2-fluoro-PABA], the intracellular uptake in [1] (setting [8]) stood at 29.4%. The “right thigh vs. left thigh uptake ratio (scintillation counting)” value with S. aureus came out at 2.62±0.98.
In data set [1] (setting [8]), `Nc1ccc(C(=O)O)cc1F` [3-F-PABA, 3-fluoro-PABA] gave an intracellular uptake of 11.2%.
On to `NC(CCCC(N)C(=O)O)C(=O)O` (stereo not shown) [DAP, 2,6-diaminopimelic acid], for which the “species that take up the compound (differential uptake)” value in [2] is “E. coli and M. smegmatis”.
For `Nc1ccc(C(=O)O)cc1` [PABA, p-aminobenzoic acid], the accumulation in host-cells result in the data set on J774 macrophages (J774 macrophages, corresponding time-points (2 and 18 hours)) is “no significant accumulation”. In addition, the “accumulation (percent of total radioactivity in bacterial pellet)” value in [1] (2 h) was determined as 32.9%; in data set [1] (18 h), 96.3%. Further, the intracellular uptake in data set [1] (18 h) came to 58.5%. Further, in [1] (M. tuberculosis, excess unlabelled tracer), the “uptake on addition of excess unlabelled tracer” value was “saturable and specific”. Besides, the uptake saturability/specificity entry in the data set on Staphylococcus aureus (S. aureus mid log cultures) is “saturable and specific”; in the data set on Escherichia coli (E. coli mid log cultures) it was “saturable and specific”. For the same molecule, the “uptake in heat killed bacteria” value in the data set with heat killed bacteria is “no uptake”.
In the case of `O=C[C@H](O)[C@@H](O)[C@H](O)CO` [XYL, D-xylose], in [2], the “species that take up the compound (differential uptake)” value is recorded as “E. coli alone”.
`OC[C@@H](O)[C@@H](O)[C@H](O)[C@H](O)CO` [[^14C] D-mannitol, D-mannitol]: the uptake (in the data set on J774 macrophages (2 h); in data set [3]) was < 5% each time. The intracellular uptake is reported as 33% in the data set with Staphylococcus aureus (30 minutes, 5 mM glucose); 30% in the data set on Staphylococcus aureus (30 minutes, 10 mM glucose); 53.5% in the data set on Staphylococcus aureus (30 minutes, without any glucose in the media); 66% in the data set on Staphylococcus aureus (2 hours of incubation); 83% with Mycobacterium smegmatis; 82% in the data set on Escherichia coli (E. coli, 2 hours of incubation). For the same molecule, the “uptake in heat killed bacteria” value with heat killed bacteria is “No uptake”.
On to `OC[C@H]1OC(O)[C@H]([18F])[C@@H](O)[C@@H]1O` (stereo partly shown) [[^18F]FDG, 2-[^18F]-fluorodeoxyglucose, reference compound], for which the “accumulation in eukaryotic cell line” value in the data set with J774 macrophages is reported as “accumulated”. Further, in the data set with E. coli, the “right thigh vs. left thigh uptake ratio (gamma counts of resected tissues)” value turned out to be 1.03±0.09 and the “PET signal intensity, infected right thigh versus control left thigh (ROIs)” value is on record as “did not produce a significant difference”. Also, the “sites of PET signal concentration” value in the data set with E. coli (mice, CT coregistration) is “heart and bladder”. Moreover, the “accumulation in eukaryotic cell line” value in the data set with WEHI 164 fibroblasts is reported as “accumulated”. The “probe incorporated by bacteria (percent of total radioactivity)” value in the data set on Staphylococcus aureus is given as 50.3%±3.1%. The “uptake in heat killed bacteria” value in the data set with heat killed bacteria is on record as “did not incorporate”.
With `OC[C@@H](O)[C@@H](O)[C@H](O)[C@@H]([18F])CO` [[^18F]FDS, 2-[^18F]-fluorodeoxysorbitol], the “accumulation in eukaryotic cell line” value in the data set on J774 macrophages and in the data set on WEHI 164 fibroblasts was “not” in each case. Moreover, the “right thigh vs. left thigh uptake ratio (gamma counts of resected tissues)” value in the data set with E. coli stood at 16.37±4.12. Moreover, in the data set with E. coli, the “PET signal intensity, infected right thigh versus control left thigh (ROIs)” value amounted to 12 fold. Also, the “route of clearance from circulation” value with E. coli (mice, over 120 minutes of recording (data not shown)) was “predominantly by the kidneys”. Moreover, the “accumulation of the probe” value is reported as “did not accumulate” in [4], “did not accumulate” in the data set on Pseudomonas aeruginosa and “accumulated” in data set [7]. Besides, in the data set with E. coli vs S. aureus, the “PET signal at E. coli infected thigh versus S. aureus infected thigh” value is listed as “significantly more intensity”. In addition, the “lung vs. blood gamma count ratio” value with K. pneumoniae [5] turned out to be 10.89±4.09. The “ratio of standardized uptake values, infiltrated vs normal lung tissue ROIs” value with K. pneumoniae [5] (18.5 MBq (data not shown)) is 5.02±66.33. In addition, in the data set with Staphylococcus aureus, the “probe incorporated by bacteria (percent of total radioactivity)” value was 0.47%±0.09%. In addition, the “probe associated with bacteria (percent of total radioactivity)” value with K. pneumoniae [6] is listed as 71.1%±8.6%; with Escherichia coli (E. coli K12, after 120 minutes), 72.2%±9.0%. Moreover, the entries for the “concentration of unlabeled sorbitol that outcompetes uptake” value with Escherichia coli (E. coli co-incubated with increasing unlabeled sorbitol) and in the data set with Escherichia coli (E. coli co-incubated with increasing unlabeled sorbitol (FIG. 6B legend)) were “above 40 ug/ml” and “above 40 μg/ml”, respectively. Besides, in the data set on heat killed bacteria, the “uptake in heat killed bacteria” value is “did not incorporate”.
